In experiment [1] the test system is NCI-H226. Briefly: Growth inhibition of human NCI-H226 cells. The class given is functional.
Experiment [2] concerns OVCAR-3. Briefly: Growth inhibition of human OVCAR-3 cells. Type of experiment: functional.
Experiment [3] relates to U-251. Briefly: Growth inhibition of human U251 cells. The class given is functional.
For experiment [4], the system named is HCT-8. As to the kind of experiment: Cytotoxicity against human HCT8 cells. The class given is functional.
The test system of experiment [5] is HOP-62. As to the kind of experiment: Growth inhibition of human HOP62 cells. The class given is functional.
Experiment [6] in a line: Displacement of [3H]colchicine from tubulin at 50 uM.
Experiment [7] relates to HCT-116. As to the kind of experiment: Growth inhibition of human HCT116 cells. Type of experiment: functional.
Experiment [8] concerns NCI-H522. As to the kind of experiment: Growth inhibition of human NCI-H522 cells. The class given is functional.
For experiment [9], the system named is SK-OV-3. As to the kind of experiment: Growth inhibition of human SKOV3 cells. Type of experiment: functional.
The test system of experiment [10] is SK-MEL-5. Briefly: Growth inhibition of human SK-MEL-5 cells. Type of experiment: functional.
The test system of experiment [11] is SF-268. Briefly: Growth inhibition of human SF268 cells. The class given is functional.
The nature of experiment [12]: Growth inhibition of human DMS144 cells. Type of experiment: functional.
Experiment [13] relates to HL-60(TB). Briefly: Growth inhibition of human HL-60(TB) cells. Type of experiment: functional.
The subject of experiment [14] is UO-31. As to the kind of experiment: Growth inhibition of human UO31 cells. The class given is functional.
For experiment [15], the system named is TE-671. As to the kind of experiment: Cytotoxicity against human TE671 cells. Type of experiment: functional. The note with it: read-out: ED50 (the source's name).
The test system of experiment [16] is SNB-75. As to the kind of experiment: Growth inhibition of human SNB75 cells. The class given is functional.
A short description of experiment [17]: Displacement of [3H]colchicine from tubulin at 5 uM.
The subject of experiment [18] is SR. As to the kind of experiment: Growth inhibition of human SR cells. The class given is functional.
Experiment [19] relates to SF-539. As to the kind of experiment: Growth inhibition of human SF539 cells. The class given is functional.
Experiment [20] concerns A549. Briefly: Cytotoxicity against human A549 cells. Type of experiment: functional.
The test system of experiment [21] is KB. As to the kind of experiment: Cytotoxicity against human KB cells. The note with it: read-out: ED50 (the source's name). The class given is functional.
For experiment [22], the system named is P388. Briefly: Cytotoxicity against mouse P388 cells. The conditions noted are these: read-out: ED50 (the source's name). The class given is functional.
Experiment [23] concerns NCI-H460. Briefly: Growth inhibition of human NCI-H460 cells. The class given is functional.
The nature of experiment [24]: Inhibition of tubulin polymerization.
Experiment [25] can be described thus: Cytotoxicity against human PRMI7951 cells. The class given is functional. The conditions noted are these: read-out: ED50 (the source's name).
Where [26] appears, read: read-out: ED50 (the source's name).

Converted amounts (≈) assume the structure as drawn. The source made the active and inactive calls. No cut-off for these calls is given here.

As for `COc1ccc(-c2oc3c(OC)c(OC)c(OC)c(O)c3c(=O)c2OC)cc1O`, the concentration for 50% growth inhibition (GI50) in [1] is 61.7 nM; in experiment [2], below 10 nM; in experiment [3], below 10 nM; in experiment [5], 47.9 nM; in experiment [7], below 10 nM; in experiment [8], below 10 nM. For the same compound, the 50% growth inhibitory concentration (GI50) in experiment [9], in [10], in experiment [11], in experiment [12], in [13] and in [14] was below 10 nM in each case. In addition, the GI50 in experiment [16], in [18], in experiment [19] and in [23] was below 10 nM each time. For the same compound, the TGI in experiment [1] (read-out: pTGI (converted)) was 363 nM; in experiment [2] (read-out: pTGI) it was below 10 nM; in experiment [3] (read-out: pTGI (converted)), 229 nM; in experiment [5] (read-out: pTGI (converted)), 4790 nM; in [7] (read-out: pTGI (converted)), 123 nM; in experiment [8] (read-out: pTGI), below 10 nM. Moreover, the TGI is 417 nM in experiment [9] (read-out: pTGI (converted)); 1000 nM in [10] (read-out: pTGI (converted)); 2820 nM in experiment [11] (read-out: pTGI (converted)); below 10 nM in experiment [12] (read-out: pTGI); below 10 nM in experiment [13] (read-out: pTGI); 5750 nM in experiment [14] (read-out: pTGI (converted)). For the same compound, the TGI was below 10 nM in experiment [16] (read-out: pTGI), 112 nM in experiment [18] (read-out: pTGI (converted)), below 10 nM in [19] (read-out: pTGI) and 138 nM in experiment [23] (read-out: pTGI (converted)). For the same compound, the EC50 in [4] (setting [26]) is 4.4 µg/mL (≈ 10.9 µM); in experiment [15] it was 0.069 µg/mL (≈ 0.171 µM); in [20] (setting [26]), 0.6 µg/mL (≈ 1.48 µM); in experiment [21], 0.045 µg/mL (≈ 0.111 µM); in [22], 0.055 µg/mL (≈ 0.136 µM); in experiment [25], 0.55 µg/mL (≈ 1.36 µM). In addition, the results for the Activity in experiment [6] and in experiment [17] were 89% and 59%, respectively. Besides, 830 nM corresponded to half-maximal inhibition in experiment [24] (IC50).

With `COc1cc([C@@H]2c3cc4c(cc3[C@H](O)[C@H]3COC(=O)[C@H]23)OCO4)cc(OC)c1OC`, the Activity in experiment [17] amounted to 82%.

With `COc1cc(-c2oc3c(OC)c(OC)c(OC)c(O)c3c(=O)c2OC)ccc1O`, the result in [4] and in experiment [20] was inactive. Further, the EC50 in [15] was determined as 0.98 µg/mL (≈ 2.42 µM); in [21] it was 8.38 µg/mL (≈ 20.7 µM); in experiment [22] it was 6.52 µg/mL (≈ 16.1 µM); in [25], 5.93 µg/mL (≈ 14.7 µM).

Consider `COc1ccc(-c2oc3cc(O)c(OC)c(O)c3c(=O)c2OC)cc1O` [CENTAUREIDIN], for which the values for the Activity in experiment [6] and in experiment [17] were 76% and 35%, respectively. The same compound had an IC50 in [24] of 2000 nM.

The values above are taken from ChEMBL document CHEMBL1159233, “Antitumor agents, 154. Cytotoxic and antimitotic flavonols from Polanisia dodecandra” (J Nat Prod, 1995).
